Series [1] in a line: method code SF-AS, from DOI: 10.1248/cpb.32.4084, PMID: 6099228. The note with it: pH 7.4.
A short description of series [2]: method code SF-HPLC, from PMID: 1515051. The note with it: pH 6.0.
Test in series [3]: not given
This is another data set of the same source.

Series [4] can be described thus: from Afshan, A.; Jehangir, M.; Amin, W.; Mujahid, A. (2000). Study of various esters of ethylcysteine acid dimer as brain perfusion imaging agents and formulation into single vial kit for labelling with …. The note with it: pH 7.5.
Series [5] is described as follows: method code G, from Wang, L.; Li, H.; Wang, X.; Zhang, Z. (1993). Determination of aqueous solubilities and partition coefficients of substitutive ethylketone congeners by generator column. Huanjing Huaxue, 12(2)151-154.
Test in series [6]: not given
The source holds these as a separate data set.

Test in series [7]: not given
The source holds these as a separate data set.

Series [8] in a line: method code SF-HPLC, from DOI: 10.1021/jm030477w, PMID: 15084119. The note with it: pH 7.4.
The nature of series [9]: method code SF-AS, from PMID: 3774812. Conditions: pH 4.0.
Series [10] is described as follows: method code SF-AS, from DOI: 10.1021/jm00296a014, PMID: 5418493.
Series [11] is described as follows: method code SF-AS, from DOI: 10.1248/cpb.32.5003, PMID: 6534549.
Series [12] in a line: method code SF-AS, from DOI: 10.1128/jb.153.1.232-240.1983, PMID: 6294048.
Series [13] is described as follows: method code SF-HPLC, from DOI: 10.1002/ps.2780280108.
Test in series [14]: not given
The source holds these as a separate data set.

The nature of series [15]: method code SF-HPLC, from DOI: 10.1016/j.ejpb.2006.11.002, PMID: 17182232. The note with it: pH 7.4.
Series [16] in a line: from Comini, L.; Núñez Montoya, S.; Argüello, G.; Cabrera, J. (2006). Partition coefficient (log P) determination of anthraquinone derivatives isolated from Heterophyllaea pustulata Hook, f. (Rubiaceae). …. Conditions: pH 7.4.
Test in series [17]: not given
The source holds these as a separate data set.

Test in series [18]: not given
The source holds these as a separate data set.

Series [19] in a line: method code SF-HPLC, from DOI: 10.1002/ps.2780170106.
Series [20] is described as follows: from Nishimura, K.; Okajima, N.; Fujita, T.; Nakajima, M. (1982). Quantitative structure-activity studies of substituted benzylchrysanthemates. IV. Physicochemical properties and rate of progress of the ….
A short description of series [21]: method code SF-AS, from THAKUR, B.; Mehta, U.; TIPNIS, P. (1981). Ortho effect in partition coefficients of some o-benzyloxybenzamides. Indian J Pharm Sci, 43(6)224-226.
Series [22] can be described thus: method code SF-AS, from DOI: 10.1248/cpb.28.3673.
The nature of series [23]: method code SF-RC, from DOI: 10.1021/jm000079i, PMID: 10956218. Conditions: pH 7.4.
Series [24] is described as follows: method code SF-HPLC, from DOI: 10.1021/jm00112a026, PMID: 1875345. Conditions: pH 7.4.
Series [25] can be described thus: method code SF-HPLC, from DOI: 10.1016/j.ejpb.2012.12.004, PMID: 23262162.
Series [26] is described as follows: method code SF-AS, from DOI: 10.1023/a:1016392123137, PMID: 24272811.
Series [27] in a line: method code SF-AS, from PMID: 6540096. Conditions: pH 7.5.
A short description of series [28]: method code SF-AS, from Schaper, J. (1979). Simultaneous determination of electronic and lipophilic properties of acids and bases by nonlinear regression analysis of pH-dependent partition measurements. J. Chem. Research ….
Test in series [29]: not given
This is another data set of the same source.

Test in series [30]: not given
The source holds these as a separate data set.

Series [31] can be described thus: method code SF-HPLC, from DOI: 10.1023/a:1015924724973, PMID: 2762226. Conditions: pH 7.4.

In general, logP refers to the decadic logarithm of the partition coefficient of the neutral form, usually between octanol and water. Low readings indicate lower lipophilicity, high ones higher lipophilicity. A word on the logD: it is the decadic logarithm of the distribution of all forms, ionised or not, between an organic phase and buffer at a given pH. A high value points to higher lipophilicity.

For `CCC(CC)(C(N)=O)c1ccc2c(c1)OCO2`, the logP was 1.59.
`COc1ccc(NC(=O)CN2CCCCC2)cc1` came in with a pH-dependent lipophilicity (logD) in series [1] of 2.52.
`CCOC(=O)n1c(-c2cscn2)nc2ccccc21` showed a logD in [2] of 2.51.
`Cc1ccc(Cl)c(NS(=O)(=O)c2nc(C)n(-c3ncccn3)n2)c1Cl` came in with a logP in series [3] of 3.
For the compound `CCCOC(=O)[C@H](CS)NCCN[C@@H](CS)C(=O)OCCC`, the logD in series [4] was determined as 2.5.
For `Cc1ccc(C(=O)CSc2ccccc2)cc1`, the logP in [5] is 2.7.
`CCN(CC)CCSCc1ccccc1` displayed a logP in [6] of 2.66.
With `c1ccc(Cc2nc3ccccc3[nH]2)cc1`, the logP in [7] was determined as 4.16.
As to `CN1CC(NC(=O)CSC(=O)c2ccccc2)CC2c3cccc4[nH]cc(c34)CC21` (stereo not drawn), the log partition coefficient (logP) in series [6] stood at 1.9.
On to `FCCNc1ccc(-c2cn3cc(I)ccc3n2)cc1`, for which the logD in series [8] was 4.41.
For the compound `C[C@H](C(=O)O)c1ccc(-c2ccccc2)c(F)c1`, the logD in series [9] stood at 3.87.
The compound `CC(C(=O)O)(c1ccccc1)c1ccccc1` gave a logP in series [10] of 2.69.
`O=C(Cc1ccccc1)Nc1ccccc1F` displayed a logP in series [11] of 2.62.
In [12] (pH 3.0), `CC(=O)OCC1=C(C(=O)O)N2C(=O)C(NC(=O)Cc3cc4ccccc4s3)C2SC1` (stereo not drawn) displayed a logD of 1.68.
On to `COC(=O)c1c(C)[nH]c(-c2ccc(Cl)cn2)c1C(=O)OC`, for which, in [13], the logP amounted to 2.7.
`CC(C)OP(=O)(OC(C)C)SCc1ccccc1` had a logP in series [14] of 3.43.
In turn, `COC(=O)C(NC(=O)c1cccnc1)n1cc(F)c(=O)[nH]c1=O` (stereo not drawn) registered a logD in [15] of -0.12.
`CCCc1nc(S(=O)(=O)Nc2c(F)cccc2F)nn1-c1ccccc1` displayed a logP in series [3] of 4.2.
In the case of `COc1c(C)c(O)cc2c1C(=O)c1ccccc1C2=O`, the logD in series [16] was determined as 2.83.
On to `O=C(O)Cc1sc(-c2ccccc2)nc1-c1ccc(Cl)cc1`, for which the logD in series [9] amounted to 2.72.
Turning to `CNS(=O)(=O)Cc1ccc2[nH]cc(CCN(C)C)c2c1`, in [17], the logP is 1.1.
In series [18], `CC(C)(C)NC(=O)[C@@H]1CN(Cc2cccnc2)CCN1C[C@@H](O)C[C@@H](Cc1ccccc1)C(=O)N[C@H]1c2ccccc2C[C@H]1O` gave a logP of 2.79.
For the compound `CCOC(=O)C(NC(=O)c1cccnc1)n1cc(F)c(=O)[nH]c1=O` (stereo not drawn), in [15], the logD came out at 0.21.
In turn, `COC(=O)c1c(C)[nH]c(-c2cccc(Cl)n2)c1C(=O)OC` registered a logP in series [13] of 2.65.
In turn, `C=CCC(CC=C)(C(N)=O)c1ccc2c(c1)OCO2` yielded a logP of 2.1.
Turning to `O=C(O)CCOc1cccc2ccccc12`, the logD in series [19] (pH 2.0) stood at 3.
Turning to `FCCCNc1ccc(-c2cn3cc(I)ccc3n2)cc1`, the logD in series [8] worked out at 4.6.
In the case of `CC=CCOC(=O)[C@@H]1[C@@H](C=C(C)C)C1(C)C`, the logP in series [20] came to 5.09.
Take `NC(=O)c1ccccc1OCc1ccc([N+](=O)[O-])cc1`: the logP in series [21] was determined as 1.73.
Regarding `O=C(CN1CCCCC1)Nc1ccc(Cl)c(Cl)c1`, in series [1], the logD came to 3.65.
For the compound `Cc1cc(-c2ccc(N)c(C)c2)ccc1N`, the logD in series [22] (pH 5.8) was found to be 2.34.
In series [5], `Cc1ccc(SCC(=O)c2ccc(Cl)cc2)cc1` showed a logP of 3.43.
In the case of `CN(C)c1ccccc1Sc1ccc(Cl)cc1N`, the logD in series [23] was found to be 3.55.
On to `CO[C@@]1(NC(=O)C(C(=O)O)c2ccc(O)cc2)C(=O)N2C(C(=O)O)=C(CSc3nnnn3C)CO[C@@H]21` (stereo partly drawn), for which the logD in [22] (pH 2.0) is -0.58.
Turning to `Cc1ccc(COc2ccccc2C(N)=O)cc1`, in [21], the logP was determined as 1.86.
For the compound `CCOP(=O)(Sc1ccccc1)Sc1ccccc1`, in series [14], the logP stood at 3.68.
In the case of `OC(CN1C2C3CCC(C3)C21)Cn1ccnc1` (stereo not drawn), the logD in series [24] came out at 1.6.
Consider `Cc1c(C)c2c(c(C)c1O)CCC(C)(C(=O)O)O2` (stereo not drawn), for which the logP in series [25] amounted to 2.61.
Regarding `O=C(Cc1ccccc1)Nc1ccccc1O`, the logP in series [11] is 2.4.
Regarding `N#CCCOc1cccc2ccccc12`, the logD in series [19] (pH 6.4) worked out at 2.8.
Take `C=CCC1(C(=O)OC)C(C=C(C)C)C1(C)C` (stereo not drawn): in series [20], the logP was found to be 4.89.
For the compound `c1ccc2[nH]c(SCCC3CCCCC3)nc2c1`, the logP in [7] turned out to be 4.5.
In series [23], `COc1ccc(Sc2ccccc2N(C)C)c(N)c1` displayed a logD of 2.83.
In the case of `Cc1ccc2c(N)nc(-c3ccccn3)cc2c1`, the logD in series [26] (pH 6.0) came out at 3.04.
Regarding `Cc1ccc2ccc3ccc(C)nc3c2n1`, in series [26], the logP turned out to be 2.46.
For `O=C1CN=C(c2ccccc2Cl)c2cc([N+](=O)[O-])ccc2N1`, the logD in series [27] is 2.5.
In the case of `CCCCOC(=O)[C@H](CS)NCCN[C@@H](CS)C(=O)OCCCC`, in series [4], the logD came to 2.9.
In series [28], `CN(C)c1ccc(NS(=O)(=O)c2ccc(N)cc2)cc1` yielded a logP of 1.57.
As to `CC(C)COC(=O)n1c(-c2cscn2)nc2ccccc21`, in series [2], the logD was found to be 3.46.
Compound `Cc1cc2oc(=O)cc(C)c2cc1OCC(O)CO` (stereo not drawn) registered a logP in [29] of 0.36.
Take `Cc1ccc(NS(=O)(=O)c2ccc(N)cc2)cc1`: the logP in series [28] is 2.11.
In [29], `Cc1cc(=O)oc2c(C)c(OCC(O)CCl)ccc12` (stereo not drawn) returned a logP of 0.53.
In the case of `CCOC(=O)C1CCC2C(C1)N2CC(O)Cn1ccnc1` (stereo not drawn), the logD in series [24] stood at 1.13.
For `Cc1c(O)cc2c(c1O)C(=O)c1ccccc1C2=O`, the logD in series [16] was 2.36.
Take `Oc1ccc(/C=C/c2cc(O)cc(O)c2)cc1`: the logP in series [25] was found to be 2.56.
`CN1C(C(=O)Nc2ccccn2)=C(O)c2sccc2S1(=O)=O` returned a logP in series [18] of 1.9.
`CN(C)C(=O)O[C@H]1N=C(c2ccccc2)c2cc(Cl)ccc2N(C)C1=O` returned a logD in series [27] of 2.88.
In series [17], `CN(C)CCN(Cc1ccccc1)c1ccccn1` registered a logP of 2.65.
Regarding `c1ccc2c(c1)ccc1cc3ccc4ccccc4c3nc12`, in series [30], the logP turned out to be 6.42.
For the compound `CCCCOC(=O)[C@@H](N)Cc1ccc(O)c(O)c1`, in [31], the log distribution coefficient (logD) amounted to 1.19.
On the same count and under the same terms, the result for `N[C@@H](Cc1ccc(O)c(O)c1)C(=O)OCCCCO` reads -0.46.
`O=C(O)C1c2ccccc2Cc2ccccc21` came in with a logP in series [10] of 2.78.
In [12], `Cc1nnc(SCC2=C(C(=O)O)N3C(=O)[C@@H](NC(=O)Cn4cnnn4)[C@H]3SC2)s1` displayed a logP of -0.24.
